Data: ChEMBL document CHEMBL1671626, “In vitro profiling of ceftaroline against a collection of recent bacterial clinical isolates from across the United States” (2008)
In brackets after ≈: the same amount, converted by molar mass.

How the values were obtained:
Assay type in all cases: functional
[1] = system: Proteus mirabilis; assay: Antibacterial activity against ceftazidime-susceptible Proteus mirabilis assessed as resistant isolates by CLSI M7-A7 broth microdilution method
[2] = system: Citrobacter freundii; assay: Antibacterial activity against ceftazidime-nonsusceptible Citrobacter freundii by CLSI M7-A7 broth microdilution method
[3] = system: Proteus mirabilis; assay: Antibacterial activity against ceftazidime-susceptible Proteus mirabilis by CLSI M7-A7 broth microdilution method
[4] = system: Citrobacter freundii; assay: Antibacterial activity against ceftazidime-nonsusceptible Citrobacter freundii assessed as resistant isolates by CLSI M7-A7 broth microdilution method
[5] = system: Escherichia coli; assay: Antibacterial activity against ceftazidime-susceptible Escherichia coli assessed as susceptible isolates by CLSI M7-A7 broth microdilution method
[6] = system: Citrobacter freundii; assay: Antibacterial activity against ceftazidime-susceptible Citrobacter freundii by CLSI M7-A7 broth microdilution method
[7] = system: Haemophilus influenzae; assay: Antibacterial activity against beta lactamase-negative Haemophilus influenzae assessed as resistant isolates by CLSI M7-A7 broth microdilution method
[8] = system: Morganella morganii; assay: Antibacterial activity against ceftazidime-susceptible Morganella morganii assessed as susceptible isolates by CLSI M7-A7 broth microdilution method
[9] = system: Acinetobacter; assay: Antibacterial activity against multidrug-resistant Acinetobacter by CLSI M7-A7 broth microdilution method
[10] = system: Proteus mirabilis; assay: Antibacterial activity against ceftazidime-susceptible Proteus mirabilis assessed as susceptible isolates by CLSI M7-A7 broth microdilution method
[11] = system: Enterobacter cloacae; assay: Antibacterial activity against ceftazidime-nonsusceptible Enterobacter cloacae assessed as resistant isolates by CLSI M7-A7 broth microdilution method
[12] = system: Klebsiella pneumoniae; assay: Antibacterial activity against ceftazidime-susceptible Klebsiella pneumoniae by CLSI M7-A7 broth microdilution method
[13] = system: Acinetobacter; assay: Antibacterial activity against imipenem-susceptible Acinetobacter assessed as resistant isolates by CLSI M7-A7 broth microdilution method
[14] = system: Klebsiella pneumoniae; assay: Antibacterial activity against ceftazidime-nonsusceptible Klebsiella pneumoniae assessed as susceptible isolates by CLSI M7-A7 broth microdilution method
[15] = system: Enterobacter cloacae; assay: Antibacterial activity against ceftazidime-susceptible Enterobacter cloacae assessed as susceptible isolates by CLSI M7-A7 broth microdilution method
[16] = system: Providencia sp.; assay: Antibacterial activity against ceftazidime-susceptible Providencia sp. assessed as susceptible isolates by CLSI M7-A7 broth microdilution method
[17] = system: Serratia marcescens; assay: Antibacterial activity against ceftazidime-susceptible Serratia marcescens assessed as resistant isolates by CLSI M7-A7 broth microdilution method
[18] = system: Klebsiella pneumoniae; assay: Antibacterial activity against ceftazidime-susceptible Klebsiella pneumoniae assessed as susceptible isolates by CLSI M7-A7 broth microdilution method
[19] = system: Morganella morganii; assay: Antibacterial activity against ceftazidime-susceptible Morganella morganii by CLSI M7-A7 broth microdilution method
[20] = system: Enterobacter cloacae; assay: Antibacterial activity against ceftazidime-susceptible Enterobacter cloacae assessed as resistant isolates by CLSI M7-A7 broth microdilution method
[21] = system: Enterobacteriaceae; assay: Antibacterial activity against ceftazidime-nonsusceptible Enterobacteriaceae by CLSI M7-A7 broth microdilution method
[22] = system: Escherichia coli; assay: Antibacterial activity against ceftazidime-susceptible Escherichia coli assessed as resistant isolates by CLSI M7-A7 broth microdilution method
[23] = system: Enterobacteriaceae; assay: Antibacterial activity against ceftazidime-susceptible Enterobacteriaceae assessed as susceptible isolates by CLSI M7-A7 broth microdilution method
[24] = system: Klebsiella pneumoniae; assay: Antibacterial activity against ceftazidime-nonsusceptible Klebsiella pneumoniae by CLSI M7-A7 broth microdilution method
[25] = system: Serratia marcescens; assay: Antibacterial activity against ceftazidime-susceptible Serratia marcescens by CLSI M7-A7 broth microdilution method
[26] = system: Acinetobacter; assay: Antibacterial activity against imipenem-susceptible Acinetobacter assessed as susceptible isolates by CLSI M7-A7 broth microdilution method
[27] = system: Escherichia coli; assay: Antibacterial activity against ceftazidime-susceptible Escherichia coli by CLSI M7-A7 broth microdilution method
[28] = system: Klebsiella pneumoniae; assay: Antibacterial activity against ceftazidime-susceptible Klebsiella pneumoniae assessed as resistant isolates by CLSI M7-A7 broth microdilution method
[29] = system: Haemophilus influenzae; assay: Antibacterial activity against beta lactamase-positive Haemophilus influenzae by CLSI M7-A7 broth microdilution method
[30] = system: Haemophilus influenzae; assay: Antibacterial activity against beta lactamase-positive Haemophilus influenzae assessed as resistant isolates by CLSI M7-A7 broth microdilution method
[31] = system: Providencia sp.; assay: Antibacterial activity against ceftazidime-susceptible Providencia sp. assessed as resistant isolates by CLSI M7-A7 broth microdilution method
[32] = system: Enterobacteriaceae; assay: Antibacterial activity against ceftazidime-nonsusceptible Enterobacteriaceae assessed as resistant isolates by CLSI M7-A7 broth microdilution method
[33] = system: Haemophilus influenzae; assay: Antibacterial activity against beta lactamase-positive Haemophilus influenzae assessed as susceptible isolates by CLSI M7-A7 broth microdilution method
[34] = system: Morganella morganii; assay: Antibacterial activity against ceftazidime-susceptible Morganella morganii assessed as resistant isolates by CLSI M7-A7 broth microdilution method
[35] = system: Enterobacter cloacae; assay: Antibacterial activity against ceftazidime-susceptible Enterobacter cloacae by CLSI M7-A7 broth microdilution method
[36] = system: Serratia marcescens; assay: Antibacterial activity against ceftazidime-susceptible Serratia marcescens assessed as susceptible isolates by CLSI M7-A7 broth microdilution method
[37] = system: Escherichia coli; assay: Antibacterial activity against ceftazidime-nonsusceptible Escherichia coli assessed as resistant isolates by CLSI M7-A7 broth microdilution method
[38] = system: Enterobacteriaceae; assay: Antibacterial activity against ceftazidime-susceptible Enterobacteriaceae by CLSI M7-A7 broth microdilution method
[39] = system: Citrobacter freundii; assay: Antibacterial activity against ceftazidime-susceptible Citrobacter freundii assessed as resistant isolates by CLSI M7-A7 broth microdilution method
[40] = system: Acinetobacter; assay: Antibacterial activity against multidrug-resistant Acinetobacter assessed as resistant isolates by CLSI M7-A7 broth microdilution method
[41] = system: Acinetobacter; assay: Antibacterial activity against imipenem-susceptible Acinetobacter by CLSI M7-A7 broth microdilution method
[42] = system: Klebsiella pneumoniae; assay: Antibacterial activity against ceftazidime-nonsusceptible Klebsiella pneumoniae assessed as resistant isolates by CLSI M7-A7 broth microdilution method
[43] = system: Acinetobacter; assay: Antibacterial activity against multidrug-resistant Acinetobacter assessed as susceptible isolates by CLSI M7-A7 broth microdilution method
[44] = system: Escherichia coli; assay: Antibacterial activity against ceftazidime-nonsusceptible Escherichia coli assessed as susceptible isolates by CLSI M7-A7 broth microdilution method
[45] = system: Enterobacteriaceae; assay: Antibacterial activity against ceftazidime-susceptible Enterobacteriaceae assessed as resistant isolates by CLSI M7-A7 broth microdilution method
[46] = system: Citrobacter freundii; assay: Antibacterial activity against ceftazidime-nonsusceptible Citrobacter freundii assessed as susceptible isolates by CLSI M7-A7 broth microdilution method
[47] = system: Escherichia coli; assay: Antibacterial activity against ceftazidime-nonsusceptible Escherichia coli by CLSI M7-A7 broth microdilution method
[48] = system: Providencia sp.; assay: Antibacterial activity against ceftazidime-susceptible Providencia sp. by CLSI M7-A7 broth microdilution method
[49] = system: Haemophilus influenzae; assay: Antibacterial activity against beta lactamase-negative Haemophilus influenzae assessed as susceptible isolates by CLSI M7-A7 broth microdilution method
[50] = system: Enterobacter cloacae; assay: Antibacterial activity against ceftazidime-nonsusceptible Enterobacter cloacae by CLSI M7-A7 broth microdilution method
[51] = system: Enterobacteriaceae; assay: Antibacterial activity against ceftazidime-nonsusceptible Enterobacteriaceae assessed as susceptible isolates by CLSI M7-A7 broth microdilution method
[52] = system: Haemophilus influenzae; assay: Antibacterial activity against beta lactamase-negative Haemophilus influenzae by CLSI M7-A7 broth microdilution method
[53] = system: Enterobacter cloacae; assay: Antibacterial activity against ceftazidime-nonsusceptible Enterobacter cloacae assessed as susceptible isolates by CLSI M7-A7 broth microdilution method
[54] = system: Citrobacter freundii; assay: Antibacterial activity against ceftazidime-susceptible Citrobacter freundii assessed as susceptible isolates by CLSI M7-A7 broth microdilution method

`CCN1CCN(C(=O)N[C@@H](C(=O)N[C@@H]2C(=O)N3[C@@H]2SC(C)(C)[C@@H]3C(=O)O)c2ccccc2)C(=O)C1=O` [PIPERACILLIN] showed an Activity [1] of 0%, an MIC50 [2] of 32 µg/mL (≈ 61.8 µM) and an MIC90 [2] of over 64 µg/mL. The MIC [3] was at most 0.5 µg/mL, the MIC50 [3] was at most 0.5 µg/mL and the MIC90 [3] was 1 µg/mL (≈ 1.93 µM). The Activity [4] was 39.4%, the Activity [5] was 96.5% and the MIC50 [6] was 2 µg/mL (≈ 3.86 µM). It also gave an MIC90 [6] of 4 µg/mL (≈ 7.73 µM), an Activity [7] of 0% and an Activity [8] of 100%. For the same compound, the MIC50 [9] was over 64 µg/mL, the Activity [10] was 100% and the Activity [11] was 54.3%. For the same compound, the MIC50 [12] was 2 µg/mL (≈ 3.86 µM), the MIC90 [12] was 8 µg/mL (≈ 15.5 µM) and the Activity [13] was 21.3%. The Activity [14] was 24.2%, the Activity [15] was 98% and the Activity [16] was 92.6%. The Activity [17] was 3.4%, the Activity [18] was 97.1% and the MIC [19] was at most 0.5 µg/mL. It also gave an MIC50 [19] of at most 0.5 µg/mL, an MIC90 [19] of 1 µg/mL (≈ 1.93 µM) and an Activity [20] of 2%. It also gave an MIC50 [21] of 32 µg/mL (≈ 61.8 µM), an MIC90 [21] of over 64 µg/mL and an Activity [22] of 2.3%. The Activity [23] was 97%, the MIC50 [24] was over 64 µg/mL and the MIC90 [24] was over 64 µg/mL. For the same compound, the MIC50 [25] was 2 µg/mL (≈ 3.86 µM), the MIC90 [25] was 16 µg/mL (≈ 30.9 µM) and the Activity [26] was 68.1%. For the same compound, the MIC50 [27] was 1 µg/mL (≈ 1.93 µM), the MIC90 [27] was 4 µg/mL (≈ 7.73 µM) and the Activity [28] was 0.5%. It also gave an MIC [29] of at most 0.03 µg/mL, an MIC50 [29] of at most 0.03 µg/mL and an MIC90 [29] of 0.06 µg/mL (≈ 0.116 µM). For the same compound, the Activity [30] was 1%, the Activity [31] was 3.7% and the Activity [32] was 38.6%. For the same compound, the Activity [33] was 99%, the Activity [34] was 0% and the MIC50 [35] was 2 µg/mL (≈ 3.86 µM). The MIC90 [35] was 4 µg/mL (≈ 7.73 µM), the Activity [36] was 93.2% and the Activity [37] was 17.5%. For the same compound, the MIC50 [38] was 2 µg/mL (≈ 3.86 µM), the MIC90 [38] was 4 µg/mL (≈ 7.73 µM) and the Activity [39] was 0%. It also gave an Activity [40] of 87.5%, an MIC50 [41] of 8 µg/mL (≈ 15.5 µM) and an MIC90 [41] of over 64 µg/mL. The Activity [42] was 62.1%, the Activity [43] was 0% and the Activity [44] was 68.3%. It also gave an Activity [45] of 1.6%, an Activity [46] of 24.2% and an MIC50 [47] of 16 µg/mL (≈ 30.9 µM). It also gave an MIC90 [47] of over 64 µg/mL, an MIC50 [48] of 2 µg/mL (≈ 3.86 µM) and an MIC90 [48] of 16 µg/mL (≈ 30.9 µM). For the same compound, the Activity [49] was 100%, the MIC50 [50] was over 64 µg/mL and the MIC90 [50] was over 64 µg/mL. It also gave an Activity [51] of 43.2%, an MIC [52] of at most 0.03 µg/mL and an MIC50 [52] of at most 0.03 µg/mL. It also gave an MIC90 [52] of 0.06 µg/mL (≈ 0.116 µM), an Activity [53] of 25.7% and an Activity [54] of 100%.
